Tests used:
[1] = tested on: Enterococcus sp.; experiment: In vitro antibacterial evaluation: minimum inhibitory concentration (MIC), broth dilution method; assay type: cell-based; details: broth dilution, 5×10^5 CFU/mL, 18 hours at 35° C.
In short: (§1)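 Values are minimum inhibitory concentrations, meaning the smallest antibiotic concentration that stops growth of the organism. They come from broth dilution in Muller-Hinton II […] per NCCLS guidance (M7-A2), using 5×10^5 CFU/mL and concentrations from 64 to 0.06 μg/mL.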

[2] = tested on: Escherichia coli; experiment: as above; assay type: cell-based; details: 5×10^5 CFU/mL, 18 hours at 35° C.
In short: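 Using Muller-Hinton II […] and an inoculum of 5×10^5 CFU/mL, antibiotic dilutions from 64 down to 0.06 μg/mL were tested following NCCLS M7-A2. The MIC is the lowest concentration inhibiting growth, including in methicillin-, penicillin- or vancomycin-resistant clinical isolates.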

[3] = tested on: Staphylococcus sp.; experiment: as above; assay type: cell-based; details: for MIC Staphylococcus aureus-SMITH (GC 4543): strain GC 4543; for MIC Staphylococcus haemolyticus (GC 4546): strain GC 4546; for MIC Coagulase Negative Staphylococcus (GC 4547): strain GC 4547; for MIC Coagulase Negative Staphylococcus (GC 4548): strain GC 4548; for MIC Coagulase Negative Staphylococcus (GC 4549): strain GC 4549; for MIC Coagulase Negative Staphylococcus (GC 4551): strain GC 4551; for MIC Coagulase Negative Staphylococcus (ID-3941): strain ID-3941
In short: as §1

[4] = tested on: Streptococcus sp.; experiment: as above; assay type: cell-based; details: broth dilution, 5×10^5 CFU/mL, 18 hours at 35° C.
In short: as §1

[5] = tested on: Enterococcus faecalis (GC 2246), vancomycin resistant strain; experiment: Acute lethal infection in mice (ED50); assay type: in vivo; details: female CD-1 mice, intraperitoneal challenge, intravenous dose 30 min. after infection, 7 day survival ratios
In short: (§2)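 Groups of five female CD-1 mice per dose got intravenous antibiotic in saline or 5% dextrose half an hour after intraperitoneal infection sufficient to kill controls within 24-48 hr. Seven-day survival data from three experiments were combined to derive ED50.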

[6] = tested on: Staphylococcus aureus-SMITH (GC 4543); experiment: Acute lethal infection in mice (ED50); assay type: in vivo; details: female CD-1 mice, intraperitoneal challenge, intravenous dose 30 min. after infection, 7 day survival ratios
In short: as §2

[7] = broth dilution, 18 hours at 35° C.

CCCC(CCC)C(=O)OCC1OC(OC2C(CO)OC(Oc3ccc(CC4NC(=O)C(C(C)c5ccccc5)NC(=O)CNC(=O)C(CO)NC(=O)C(C(O)C5CNC(=N)N5C5OC(CO)C(O)C(O)C5O)NC(=O)C(C(O)C5CNC(=N)N5)NC4=O)cc3)C(O)C2O)C(O)C(O)C1O (stereo not drawn) [Example 99c, Cyclo[glycyl-β-methylphenylalanyl-O-[4-O-[6-O-(2-propylpentanoyl)hexopyranosyl]-hexopyranosyl]tyrosyl-3-(2-iminoimidazolidin-4-yl)seryl-3-(3-hexopyranosyl-2-iminoimidazolidin-4-yl)serylseryl]]
4 µg/mL: MIC Enterococccus avium (GC 4558) [1] | MIC Enterococccus faecalis (ATCC 29212) [1] | MIC Enterococccus faecalis (GC 4552) [1] | MIC Enterococccus faecalis (GC 4553) [1] | MIC Enterococccus faecalis (GC 4554) [1] | MIC Enterococccus faecium (GC 2243) [1] | MIC Enterococccus faecium (GC 4556) [1] | MIC Enterococcus faecalis (GC 2242) [1]
0.52 mg/kg: median effective dose (ED50), Staphylococcus aureus-SMITH (GC 4543) [6]
1 µg/mL: MIC Staphylococcus aureus (ATCC 29213) ([3]; strain ATCC 29213) | MIC Staphylococcus aureus (GC 4542) ([3]; strain GC 4542) | MIC Staphylococcus aureus-SMITH (GC 4543) ([3]; 18 hours at 35° C.) | MIC Staphylococcus aureus-SMITH (GC 4543) [3, 7] | MIC Staphylococcus aureus (GC 4545) ([3]; strain GC 4545) | MIC Staphylococcus haemolyticus (GC 4546) [3] | MIC Staphylococcus haemolyticus (GC 4546) [3, 7] | MIC Coagulase Negative Staphylococcus (GC 4547) [3] | MIC Coagulase Negative Staphylococcus (GC 4547) [3, 7] | MIC Coagulase Negative Staphylococcus (GC 4548) [3] | MIC Coagulase Negative Staphylococcus (GC 4548) [3, 7] | MIC Coagulase Negative Staphylococcus (GC 4549) [3] | MIC Coagulase Negative Staphylococcus (GC 4549) [3, 7] | MIC Coagulase Negative Staphylococcus (ID-3941) [3] | MIC Coagulase Negative Staphylococcus (ID-3941) [3, 7]
64 µg/mL: MIC Escherichia coli (ATCC 25922) [2]
2 µg/mL: MIC Enterococccus faecium (GC 4557) [1] | MIC Staphylococcus aureus (GC 1131) ([3]; strain GC 1131) | MIC Staphylococcus aureus (GC 4541) ([3]; strain GC 4541) | MIC Staphylococcus aureus (GC 4544) ([3]; strain GC 4544) | MIC Coagulase Negative Staphylococcus (GC 4551) [3] | MIC Coagulase Negative Staphylococcus (GC 4551) [3, 7]
<0.5 µg/mL: MIC Streptococcus agalactiae (GC 4564) [4] | MIC Streptococcus pneumoniae (GC 4565) [4] | MIC Streptococcus pyogenes (ID-3187) [4]
4.3 mg/kg: median effective dose (ED50), Enterococcus faecalis (GC 2246) [5]
